The experiment concerns HeLa-Kb-A3-47 cells. Briefly: Cell-surface HLA-A3 level after transfection with ER targeted precursors. Conditions: GAP-A3 staining (Figure 7B). Format: cell-based.

The record followed here is publication PMC2855122 (Journal of immunology (Baltimore, Md. : 1950), 2009).

Turning to RVCEKMALY [R-Y], the “Surface expression of HLA-A3 after ER targeted peptide” value is given as “increased the surface expression of HLA-A3”.
